Key:
JEG-3 cells [1] = experiment: [3H]-thymidine incorporation in JEG-3 cells (leptin assay in non-recombinant system); format: cell-based; conditions: FIG. 5
Description: In JEG-3 cells (choriocarcinoma cell line) leptin is able to stimulate proliferation up to 3 fold (Biol. Reprod. (2007) 76: 203-10). […] The radioactivity incorporated by the cells is an index of their proliferative activity and is measured in counts per minute (CPM) with a liquid scintillation beta counter.
This finding can be applied to test whether a compound is able to either reproduce the effect of leptin on cell proliferation (leptin receptor agonist mimetic) (i.e., a given compound will cause an increase in incorporated [^3H]-Thymidine by the cells) or to inhibit the effect of leptin (antagonistic effect) by preventing the leptin-mediated increase in [^3H]-thymidine incorporation.
This approach has the advantage of using a non-recombinant system and has reasonable reproducibility and robustness.

JEG-3 cells [2] = conditions: Biol. Reprod. (2007) 76: 203-10; cited from earlier work

EC50 (JEG-3 cells [1]; JEG-3 cells (choriocarcinoma cell line), read-out: EC50, increase in [3H]-thymidine incorporation): 2.1 nM
Substance: leptin: a hormone synthesized in fat cells that is believed to act in the hypothalamus to reduce food intake and body weight
concentration of maximal effect on [3H]-thymidine incorporation (JEG-3 cells [1]; JEG-3 cells): 100 nM
stimulation of proliferation (JEG-3 cells [2]): up to 3 fold
